Reference: patent US20210137953A1, “Inhibitors of Mcl-1 and Akt Binding, Pharmaceutical Compositions, and Uses in Treating Cancer” (Emory University, priority 2019, published 2021)
“Also recorded” adds a separate entry of the source.

What was measured:
[1] = target: T1, Akt/PDK1 (Homo sapiens, UniProt P31749); experiment: interaction of Akt with PDK1 in H1299 cells; assay type: cell-based
T1 construct: endogenous in cells; host or cells: H1299
Procedure: (§1) PIP3 directly binds to the PH domain and induces a conformational change in Akt, which enables PDK1 or mTORC2 to access and phosphorylate Akt at T308 or S473. To test whether Mcl-1, similar to PIP3, may also affect the interactions between Akt and PDK1 or mTORC2, co-IP experiments using Akt antibody were performed in H1299 parental cells or H1299 Mcl-1^−/^− cells expressing WT Mcl-1, DPEST Mcl-1 mutant, or empty vector, followed by Western blot using PDK1 or mTORC2 antibody, respectively. Results reveal that knockout of Mcl-1 disrupted Akt/PDK1 and Akt/mTORC2 interactions, and expression of WT Mcl-1, but not PEST deletion mutant, restored Akt/PDK1 and Akt/mTORC2 interactions.
(§2) To test whether PH-687-mediated Mcl-1/Akt dissociation enhances interaction between the PH and KD domains, a mammalian two-hybrid system was employed to measure the PH/KD interaction in H1299 cells using Gal4BD-Akt KD, VP16AD-Akt PH, and pG5SEAP in the absence or presence of PH-687.

[2] = test system: H1299 cells expressing Akt siRNA; experiment: colony formation assay, H1299 cells expressing Akt siRNA; assay type: cell-based, human; conditions: knockdown of Akt by Akt siRNA, vs H1299 parental; 0, 0.1, 0.5, 1 mmol/L
Procedure: (§3) To further test whether PH-687 specifically functions through targeting Mcl-1/AKT signaling in lung cancer cells, H1299 parental cells, H1299 Mcl-1^−/^− cells and H1299 cells expressing Akt siRNA were treated with increasing concentrations of PH-687 (0, 0.1, 0.5, 1 mmol/L), followed by colony formation assay.

[3] = target: T2, GST-tagged WT Akt (Homo sapiens, UniProt P31749); experiment: thermal shift assay, GST-WT Akt; assay type: binding; conditions: purified GST-WT Akt, increasing concentrations
T2 construct: made in house
T2 sequence (P31749 whole entry): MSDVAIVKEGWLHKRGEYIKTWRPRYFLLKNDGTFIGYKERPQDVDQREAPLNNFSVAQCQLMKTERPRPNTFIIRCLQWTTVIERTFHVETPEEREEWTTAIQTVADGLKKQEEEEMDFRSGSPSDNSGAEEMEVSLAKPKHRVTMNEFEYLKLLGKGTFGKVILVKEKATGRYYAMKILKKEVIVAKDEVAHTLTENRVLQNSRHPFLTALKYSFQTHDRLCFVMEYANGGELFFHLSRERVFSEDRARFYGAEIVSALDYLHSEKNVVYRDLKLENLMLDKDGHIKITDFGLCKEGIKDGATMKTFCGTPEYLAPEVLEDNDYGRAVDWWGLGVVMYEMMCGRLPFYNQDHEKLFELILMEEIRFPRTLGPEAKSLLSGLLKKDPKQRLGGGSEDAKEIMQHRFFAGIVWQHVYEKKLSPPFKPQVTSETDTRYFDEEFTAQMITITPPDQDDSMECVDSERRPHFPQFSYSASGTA
Procedure: (§4) To test whether PH-687 specifically binds to the PH domain in Akt, recombinant GST-tagged WT Akt, PH deletion Akt mutant (DPH), and PH domain-only proteins were generated and PH-687 compound/Akt protein binding were measured using a thermal shift assay. Thermal shift assay is a technique to study protein/small-molecule interactions that enhance protein thermal stability and increase melting temperatures as described in Jin et al. Glutamate dehydrogenase 1 signals through antioxidant glutathione peroxidase 1 to regulate redox homeostasis and tumor growth. Cancer Cell, 2015, 27:257-70. […] Because PH-687 can bind to the Mcl-1-binding site (i.e., PH domain) on Akt protein, the effect of PH-687 on Mcl-1/Akt interaction was tested.

[4] = toxicity in xenograft-bearing mice (body weight, blood chemistry, blood counts); assay type: in vivo; conditions: 30-90 mg/kg/day
Procedure: (§5) To test the antitumor potency of PH-687 in vivo, nude mice with NSCLC (i.e., H1299) xenografts were treated with increasing doses (0, 30, 60, and 90 mg/kg/day) of PH-687 for 4 weeks.
(§6) Six-week-old male nude mice were purchased from Harlan and housed under pathogen-free conditions. H1299 cells were subcutaneously implanted into mouse flanks. Tumor bearing mice were randomly grouped and tumors were allowed to grow to an average volume of 100 mm3 before treatment. Mice were treated with PH-687 through intraperitoneal injection (i.p) at the indicated dose. During treatment, tumor volumes were measured by caliper once every 4 days.

[5] = test system: GST-DPH (PH deletion Akt mutant); experiment: thermal shift assay, PH deletion Akt mutant; assay type: binding; conditions: GST-DPH protein, increasing concentrations
Procedure: as §4

[6] = test system: H1299 parental cells; experiment: colony formation assay, H1299 parental cells; assay type: cell-based, human; conditions: H1299 cells, 0, 0.1, 0.5, 1 mmol/L
Procedure: as §3

[7] = target: T3, Mcl-1/Akt complexes (Homo sapiens, UniProt P31749); experiment: Co-IP of Mcl-1/Akt interaction in H1299 cells; assay type: cell-based; conditions: increasing concentrations
T3 construct: treatment of H1299 cells with increasing concentrations of PH-687; endogenous in cells; host or cells: H1299
T3 sequence (P31749 whole entry, one chain of several): as the sequence (P31749 whole entry) above
Procedure: To evaluate the mechanism by which Mcl-1 regulates Akt, coimmunoprecipitation (co-IP) experiments using Mcl-1 or Akt antibody were performed in H1299 parental versus H1299 Mcl-1^−/^− cells. […] Because Akt antibody could pull-down Mcl-1 protein only in H1299 parental, but not in H1299 Mcl-1^−/^− cells, this indicates a potential direct interaction between Mcl-1 and Akt in human lung cancer cells. To further verify this interaction, similar co-IP experiments were carried out in a cell-free system using purified recombinant Mcl-1 and Akt proteins. Consistently, Mcl-1 also directly interacted with Akt in the cell-free system. To detect the intracellular localization(s) of Akt/Mcl-1 interaction, a Duolink™ proximity ligation assay (PLA) system was employed to detect Akt/Mcl-1 interaction in H1299 cells and H460 cells according to the manufacturer's instructions. Two primary antibodies raised in different species (i.e., Mcl-1 antibody from rabbit and Akt antibody from mouse) are used to detect two unique protein targets. […] PLA signals were detected by fluorescence microscopy as discrete spots. […]
To test whether PH-687 specifically binds to the PH domain in Akt, recombinant GST-tagged WT Akt, PH deletion Akt mutant (DPH), and PH domain-only proteins were generated and PH-687 compound/Akt protein binding were measured using a thermal shift assay. […]

[8] = target: T4, GST-PH domain-only Akt protein (Homo sapiens, UniProt P31749); experiment: thermal shift assay, PH domain-only protein; assay type: binding; conditions: purified GST-PH-mutant (PH domain-only) protein, increasing concentrations
T4 construct: PH domain-only proteins were generated; made in house
T4 sequence (P31749 5-108 limits assumed): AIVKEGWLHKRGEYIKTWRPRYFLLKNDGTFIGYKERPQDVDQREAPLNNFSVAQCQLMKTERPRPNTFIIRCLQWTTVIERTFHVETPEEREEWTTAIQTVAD
Procedure: as §4

[9] = test system: human lung cancer cells; experiment: sulforhodamine B cytotoxicity screening; assay type: cell-based; conditions: sulforhodamine B assay; among the top 500 small molecules from docking
Description: The small molecules were ranked according to their energy scores. The top 500 small molecules based on predicted binding energies were selected for screening of cytotoxicity in human lung cancer cells by sulforhodamine B assay as described in Park et al. Novel small molecule inhibitors of Bcl-XL to treat lung cancer. Cancer Res 2013;73: 5485-96.

[10] = test system: Akt PH/KD interaction; experiment: mammalian two-hybrid system (SEAP), PH/KD interaction in H1299 cells; assay type: cell-based, human; conditions: H1299 cells, 0, 0.5, 1, 2 mmol/L, 24 hours
Description: Because Mcl-1 can directly interact with Akt at the PH domain, experiments were designed to test whether Mcl-1 affects the intramolecular PH domain/KD interaction. GST-tagged KD, GFP-tagged PH domain, and Flag-tagged WT Mcl-1 or DPEST Mcl-1 mutant were used for co-transfection and co-IP experiments. […] To further confirm these findings, a mammalian two-hybrid system was employed to measure the PH/KD interaction. Co-transfection of Gal4BD-Akt KD and VP16AD-Akt PH along with pG5SEAP in cells drives the expression of secreted alkaline phosphatase (SEAP) when KD/PH interaction occurs. To test the effect of Mcl-1 on KD/PH interaction, the two-hybrid H1299 Mcl-1^−/^− cells were co-transfected with WT Mcl-1 or DPEST mutant Mcl-1, followed by analysis of SEAP activity. […] Because the PEST domain is required for Mcl-1/Akt binding, it is proposed that Mcl-1 disruption of intramolecular PH domain/kinase domain interactions may occur through Mcl-1/Akt binding.
as §2

[11] = test system: NSCLC (H1299) xenografts; experiment: H1299 lung cancer xenografts in nude mice; assay type: in vivo
Procedure: Nu/Nu nude mice with H1299 lung cancer xenografts were treated with increasing doses of PH-687 for 4 weeks. Tumor volume was measured once every 4 days. After 28 days, mice were sacrificed and the tumors were removed, photographed, and analyzed.
as §5, §6
Paraffin-embedded human lung tissue samples from 208 patients with NSCLC were obtained. Tissue microarray was constructed with replicate cores of tumor and adjacent normal lung. After deparaffinization, rehydration, inactivation of endogenous peroxidase, and antigen retrieval, IHC staining was performed. The following primary antibody dilutions were used: anti-Mcl-1 (1:300), anti-pAKT S473 (1:100), anti-pAKT T308 (1:100), anti-Ki67 (1:500), and anti-active caspase-3 (1:100). Ki67-positive cells and active caspase-3-positive cells in tumor tissues were scored. Percentage of positive cells was determined from three separate fields in each of three independent tumor samples. The semiquantitative evaluation of IHC staining of Mcl-1 and pAkt was carried out using an immunoscore based on both the percentage of stained cells and staining intensity.

[12] = target: T5, Akt/mTORC2 (Homo sapiens, UniProt P31749); experiment: interaction of Akt with mTORC2 in H1299 cells; assay type: cell-based
T5 construct: endogenous in cells; host or cells: H1299
T5 sequence (P31749 whole entry): as the sequence (P31749 whole entry) above
Procedure: as §1, §2

[13] = test system: Akt; experiment: Akt activity in human lung cancer cell lines; assay type: cell-based
[14] = test system: H1299 Mcl-1−/− cells; experiment: colony formation assay, H1299 Mcl-1−/− cells; assay type: cell-based, human; conditions: knockout of Mcl-1 by CRISPR/cas9, vs H1299 parental; 0, 0.1, 0.5, 1 mmol/L
Procedure: as §3

[15] = test system: Akt phosphorylation; experiment: growth factor-induced Akt phosphorylation in H1299 cells; assay type: cell-based, human; conditions: 2 mmol/L, 1 hour, EGF 100 ng/mL, IGF 10 ng/mL or insulin 1 mg/mL
Procedure: To test whether Mcl-1 or PH-687 also affects Akt activation by growth factors such as EGF, IGF, or insulin, first, H1299 parental and H1299 Mcl-1^−/^− cells were treated with EGF (100 ng/mL), IGF (10 ng/mL), or insulin (1 mg/mL) for 1 hour, followed by analysis of Akt phosphorylation. […] Knockout of Mcl-1 blocked EGF, IGF, and insulin-induced Akt phosphorylation at S473 and T308. Second, H1299 cells were treated with EGF (100 ng/mL), IGF (10 ng/mL), or insulin (1 mg/mL) in the absence or presence of PH-687 (2 mmol/L) for 1 hour, followed by analysis of Akt phosphorylation. Results reveal that PH-687 inhibited EGF, IGF, and insulin-induced Akt phosphorylation at S473 and T308.

[16] = test system: various human lung cancer cell lines (H1299, H157, H460); experiment: colony formation / growth in various human lung cancer cell lines; assay type: cell-based
[17] = harvested tumor tissues after treatment

T1 sequence (P31749 whole entry): as above

N=c1ccn2c(n1)OC1C(OP(=O)(O)O)C(CO)OC12 (stereo not shown) [PH-687, 2-(hydroxymethyl)-6-imino-2,3,3a,9a-tetrahydro-6H-furo[2′,3′:4,5]oxazolo[3,2-a]pyrimidin-3-yl dihydrogen phosphate]
interaction of Akt with PDK1 [1]: dose dependent decreased interaction
inhibitory effect on cell growth (colony formation) [2]: reduced the inhibitory effect
Tm (melting temperature) [3]: Dose-dependent increases in Tm
increase in alanine aminotransferase [4]: no significant increase
increase in aspartate aminotransferase [4]: no significant increase
increase in blood urea nitrogen [4]: no significant increase
reduction in PLT [4]: no significant
reduction in RBC [4]: no significant
reduction in WBC [4]: no significant
reduction in hemoglobin [4]: no significant
weight loss [4]: no significant weight loss
Tm (melting temperature) [5]: no significant increase in Tm
cell growth (colony formation) [6]: growth inhibition in a dose-dependent manner
dissociation of Mcl-1/Akt complexes [7]: dose-dependent dissociation of Mcl-1/Akt complexes
Tm (melting temperature) [8]: Dose-dependent increases in Tm
activity against human lung cancer cells (cytotoxicity) [9]: most potent activity
PH/KD interaction [10]: increased PH/KD interaction in a dose-dependent manner
Ki67 level in tumor tissues (IHC) [11, 17]: decreased levels
apoptosis (active caspase-3) in tumor tissues (IHC) [11, 17]: increased apoptosis
pAkt (S473) level in tumor tissues (IHC) [11, 17]: decreased levels
pAkt (T308) level in tumor tissues (IHC) [11, 17]: decreased levels
tumor growth (tumor volume) ([11]; nude mice, 0, 30, 60, 90 mg/kg/day i.p., 4 weeks): suppressed tumor growth in a dose-dependent manner; also recorded: suppresses tumor growth
interaction of Akt with mTORC2 [12]: dose dependent decreased interaction
Akt activity [13]: significantly reduced Akt activity
inhibitory effect on cell growth (colony formation) [14]: reduced the inhibitory effect
EGF, IGF, and insulin-induced Akt phosphorylation at S473 [15]: inhibited
EGF, IGF, and insulin-induced Akt phosphorylation at T308 [15]: inhibited
cell growth [16]: growth inhibition
